# Experimental data as given in ChEMBL document CHEMBL6178013, “Ferroptosis of Cancer Cells via Tubulin Degradation and Mitochondrial Dysfunction: A Novel Mechanism of Anticancer Effect for Small-Molecule Anion Transporters” (J Med Chem, 2025).
# The source made the active and inactive calls. No cut-off for these calls is given here.
# Tests used:
# Chloride [1] = test: Binding affinity to chloride anions assessed as anionophoric activity in egg-yolk L-alpha-phosphatidylcholine liposome model measured per lipid by pyranine-based fluorescent assay
# Chloride [2] = test: Binding affinity to chloride anions assessed as binding constant at 1:1 stoichiometry of compound and tetrabutylammonium chloride salt by 1H NMR spectroscopy
# Chloride [3] = test: Binding affinity to chloride anions assessed as chloride efflux in egg-yolk L-alpha-phosphatidylcholine liposome model harboring intravesicular CsCl/extravesicular NaNO3
# Chloride [4] = test: Binding affinity to chloride anions assessed as chloride efflux in egg-yolk L-alpha-phosphatidylcholine liposome model harboring intravesicular NaCl/extravesicular NaNO3
# Chloride [5] = test: Binding affinity to chloride anions assessed as chloride efflux in egg-yolk L-alpha-phosphatidylcholine liposome model harboring intravesicular NaCl/extravesicular NaHCO3
# Chloride [6] = test: Binding affinity to chloride anions in human HeLa cells assessed as increase in green fluorescence in cytoplasm at 5 uM incubated for 6 hrs by AO staining based analysis; assay type: cell-based
# Chloride [7] = test: Binding affinity to chloride anions in human HeLa cells assessed as decrease in red fluorescence in cytoplasm at 5 uM incubated for 1.5 hrs by MR-(RR)2 staining based analysis; assay type: cell-based
# Chloride [8] = test: Binding affinity to chloride anions in human HeLa cells assessed as increase in chloride influx at 1 uM measured after 30 to 60 mins by inverted fluorescence microscopy; assay type: cell-based; conditions: time 30-60 min
# A549 = test: Cytotoxicity against human A549 cells incubated for 48 hrs by MTT assay; assay type: functional, cell-based; conditions: A549, 48 h
# MCF7 = test: Cytotoxicity against human MCF7 cells incubated for 48 hrs by MTT assay; assay type: functional, cell-based; conditions: MCF7, 48 h
# HepG2 = test: Cytotoxicity against human HepG2 cells incubated for 48 hrs by MTT assay; assay type: functional, cell-based; conditions: HepG2, 48 h
# HeLa [9] = test: Cytotoxicity against human HeLa cells assessed as decrease in cell viability cultured in chloride-free extracellular medium at 0.05 to 5 uM incubated for 12 hrs; assay type: functional, cell-based; conditions: dose 0.05-5 µM
# HeLa [10] = test: Cytotoxicity against human HeLa cells assessed as decrease in cell viability at 0.01 to 10 uM pretreated with Fer-1 followed by compound addition by MTT assay; assay type: functional, cell-based; conditions: dose 0.01-10 µM
# HeLa [11] = test: Cytotoxicity against human HeLa cells assessed as decrease in cell viability at 0.01 to 10 uM pretreated with Z-VAD-FMK followed by compound addition by MTT assay; assay type: functional, cell-based; conditions: dose 0.01-10 µM
# HeLa [12] = test: Cytotoxicity against human HeLa cells assessed as decrease in cell viability at 0.01 to 10 uM pretreated with Z-VAD-FMK/Fer-1 followed by compound addition by MTT assay; assay type: functional, cell-based; conditions: dose 0.01-10 µM
# HeLa [13] = test: Cytotoxicity against human HeLa cells assessed as decrease in cell viability at 0.01 to 10 uM pretreated with Nec-1 followed by compound addition by MTT assay; assay type: functional, cell-based; conditions: dose 0.01-10 µM
# HeLa [14] = test: Induction of mitochondrial membrane permeability in human HeLa cells assessed as green fluorescence at 0.5 uM incubated for 24 hrs by JC-1 staining based analysis (reference value: 1.5 %); assay type: functional
# HeLa [15] = test: Induction of lipid peroxidation in human HeLa cells assessed as increase in Fe2+ level incubated for 12 hrs by absorbance based assay; assay type: functional, cell-based; conditions: dose 0.1-1 µM
# HeLa [16] = test: Induction of lipid peroxidation in human HeLa cells assessed as increase in MDA level incubated for 12 hrs by absorbance based assay; assay type: functional, cell-based; conditions: dose 0.1-1 µM
# HeLa [17] = test: Induction of lipid peroxidation in human HeLa cells assessed as increase in green fluorescence at 0.1 to 1 uM incubated for 24 hrs by C11-BODIPY-581/591 probe based analysis; assay type: functional, cell-based; conditions: dose 0.1-1 µM
# HeLa [18] = test: Induction of lipid peroxidation in human HeLa cells assessed as increase in ROS generation incubated for 24 hrs by DCFH-DA probe based fluorescence microscopy; assay type: functional, cell-based; conditions: dose 0.1-1 µM
# HeLa [19] = test: Induction of ferroptosis in human HeLa cells assessed as increase in caspase-3 activation at 0.1 to 1 uM incubated for 24 hrs by immunoblotting analysis; assay type: functional, cell-based; conditions: dose 0.1-1 µM
# HeLa [20] = test: Induction of ferroptosis in human HeLa cells assessed as decrease in Bcl-2 level at 0.1 to 1 uM incubated for 24 hrs by immunoblotting analysis; assay type: functional, cell-based; conditions: dose 0.1-1 µM
# [21] = AUC (0 to infinity) in male CD-1 mouse at 1 mg/kg, iv measured for 0.083 to 48 hrs by HPLC/MS/MS analysis; assay type: ADME, organism-based; conditions: in vivo, time 0.083-48 hrs
# [22] = MRT (0 to t) in male CD-1 mouse at 1 mg/kg, iv measured for 0.083 to 48 hrs by HPLC/MS/MS analysis; assay type: ADME, organism-based; conditions: in vivo, time 0.083-48 hrs
# [23] = Cmax in male CD-1 mouse at 1 mg/kg, iv measured for 0.083 to 48 hrs by HPLC/MS/MS analysis; assay type: ADME, organism-based; conditions: in vivo, time 0.083-48 hrs
# [24] = AUC (0 to t) in male CD-1 mouse at 1 mg/kg, ip measured for 0.083 to 48 hrs by HPLC/MS/MS analysis; assay type: ADME, organism-based; conditions: in vivo, time 0.083-48 hrs
# [25] = AUC (0 to infinity) in male CD-1 mouse at 1 mg/kg, ip measured for 0.083 to 48 hrs by HPLC/MS/MS analysis; assay type: ADME, organism-based; conditions: in vivo, time 0.083-48 hrs
# [26] = MRT (0 to infinity) in male CD-1 mouse at 1 mg/kg, ip measured for 0.083 to 48 hrs by HPLC/MS/MS analysis; assay type: ADME, organism-based; conditions: in vivo, time 0.083-48 hrs
# [27] = Half life in male CD-1 mouse at 1 mg/kg, ip measured for 0.083 to 48 hrs by HPLC/MS/MS analysis; assay type: ADME, organism-based; conditions: in vivo, time 0.083-48 hrs
# [28] = Cmax in male CD-1 mouse at 1 mg/kg, ip measured for 0.083 to 48 hrs by HPLC/MS/MS analysis; assay type: ADME, organism-based; conditions: in vivo, time 0.083-48 hrs
# HeLa [29] = test: Antitumor activity against human HeLa cells xenografted in male Balb/C nude mouse assessed as average tumor size at 10 mg/kg, ip administered on every 2 days measured after 18 days (reference value: 1995.1 mm3); assay type: functional; conditions: time 18 day
# HeLa [30] = test: Antitumor activity against human HeLa cells xenografted in male Balb/C nude mouse assessed as nuclear fragmentation at 10 to 20 mg/kg, ip administered on every 2 days measured after 18 days by H and E staining based analysis; assay type: functional, organism-based; conditions: dose 10-20 mg/kg, time 18.0 day
# HeLa [31] = test: In vivo induction of ferroptosis in human HeLa cells xenografted in male Balb/C nude mouse assessed as increase in cleaved PARP level administered intraperitoneally on every 2 days measured after 18 days by immunoblotting analysis; assay type: functional, organism-based; conditions: dose 10-20 mg/kg, route ip, time 18.0 day
# [32] = Toxicity in male Balb/C nude mouse xenografted with human HeLa cells assessed as abnormalities in heart at 10 to 20 mg/kg, ip administered on every 2 days measured after 18 days by H and E staining based analysis; assay type: organism-based; conditions: in vivo, 432 h, dose 10-20 mg/kg, time 18 day
# [33] = Toxicity in male Balb/C nude mouse xenografted with human HeLa cells assessed as abnormalities in liver at 10 to 20 mg/kg, ip administered on every 2 days measured after 18 days by H and E staining based analysis; assay type: organism-based; conditions: in vivo, 432 h, dose 10-20 mg/kg, time 18 day
# [34] = Drug concentration in brain of C57BL/6 mouse at 5 mg/kg, iv measured after 4 hrs by HPLC/MS/MS analysis; assay type: ADME, organism-based; conditions: read-out: Ct
compound,measurement,setting,value
Fc1cc(-c2nc3c(C(F)(F)F)cc(C(F)(F)F)cc3[nH]2)cc(-c2nc3c(C(F)(F)F)cc(C(F)(F)F)cc3[nH]2)c1,EC50,Chloride [1],4.16 10^-2mol%
same,K,Chloride [2],5250 M⁻¹
same,Activity,Chloride [3],Active
same,Activity,Chloride [4],Active
same,Activity,Chloride [5],Active
same,Activity,Chloride [6],Active; The Result Indicates That Compound Basify Acidic Organelles
same,Activity,Chloride [7],Active; The Result Reveals That Compound Can Alkalize Lysosomes
same,Activity,Chloride [8],Active
same,IC50,A549,1.68 µM
same,IC50,MCF7,0.77 µM
same,IC50,HepG2,2.47 µM
same,Activity,HeLa [9],inactive
same,Activity,HeLa [10],inactive
same,Activity,HeLa [11],Not active; Z-Vad-Fmk Exhibited Partial Protection For Cells
same,Activity,HeLa [12],Not active; Z-Vad-Fmk/Fer-1 Rescued Cells In Dose-Dependent Manner
same,Activity,HeLa [13],Active
same,Activity,HeLa [14],44.9%
same,Activity,HeLa [15],Dose-dependent-effect
same,Activity,HeLa [16],Dose-dependent-effect
same,Activity,HeLa [17],Active
same,Activity,HeLa [18],Dose-dependent-effect
same,Activity,HeLa [19],Active
same,Activity,HeLa [20],Active
same,AUC(0-inf),[21],17800 ng·h/mL
same,MRT last,[22],2.64 h
same,Cmax,[23],22700 ng/mL
same,AUC(0-t),[24],3850 ng·h/mL
same,AUC(0-inf),[25],4610 ng·h/mL
same,MRT inf,[26],14.8 h
same,half-life,[27],19.9 h
same,Cmax,[28],270 ng/mL
same,Activity,HeLa [29],850.9 mm3
same,Activity,HeLa [30],Active
same,Activity,HeLa [31],Dose-dependent-effect
same,Activity,[32],Non-toxic
same,Activity,[33],Non-toxic
same,concentration at 4 h,[34],1300 nM
